Results on two compounds are retold here after patent US8288550B2, “Crystalline form of a benzimidazole-carboxamide medicinal compound” (Theravance, Inc., priority 2005, dated 2012).

Data set [1] in a line: Stability to milling of particles. The data set is classed as physicochemical. The following applies: milled from mean particle size about 470 microns to about 15, 22 or 29 microns.
Data set [2] in a line: Dynamic moisture sorption assessment. It is filed as physicochemical. How it is done:
Dynamic Moisture Sorption Assessment
Dynamic moisture sorption (DMS) assessment was performed at 25° C. using a VTI atmospheric microbalance, SGA-100 system (VTI Corp., Hialeah, Fla. 33016). A sample size of approximately 5-10 mg was used and the humidity was set at the ambient value at the start of the analysis. A typical DMS analysis consisted of three scans: ambient to 2% relative humidity (RH), 2% RH to 90% RH, 90% RH to 5% RH at a scan rate of 5% RH/step. The mass was measured every two minutes and the RH was changed to the next value (±5% RH) when the mass of the sample was stable to within 0.02% for 5 consecutive points.

A short description of data set [3]: Solid state stability assessment (40° C. and 75% RH). The data set is classed as physicochemical. The following applies: three months, open glass vials. As to the method:
Solid State Stability Assessment
Samples of the crystalline compound of Form I, prepared according to the process of Example 3, were stored in multiple open glass vials at 40° C. and 75% RH. At specific intervals, the contents of a representative vial was removed and analyzed by DSC, TGA, PXRD, and by HPLC for chemical purity.

Data set [4] is described as follows: Thermal gravimetric analysis (TGA). It is filed as physicochemical. The following applies: heating rate 10° C./min.
Method: Thermogravimetric analysis (TGA) was performed using a TA Instruments Model Q-500 module. Data were collected and analyzed using TA Instruments Thermal Advantage for Q Series™ software. A sample weighing about 2 mg was placed in an aluminum pan on a platinum cradle and scanned from ambient temperature to about 300° C. with a linear heating rate of 10° C./min. The balance and furnace chambers were purged with nitrogen during use.
The subject of the next data set is Caco-2 cell monolayer. The settings on record: human, Caco-2, 1 h.

Method for Caco-2 cell monolayer: In Vitro Model of Oral Bioavailability: Caco-2 Permeation Assay
The Caco-2 permeation assay was performed to model the ability of test compounds to pass through the intestine and get into the blood stream after oral administration. The rate at which test compounds in solution permeate a cell monolayer designed to mimic the tight junction of human small intestinal monolayers was determined.
Caco-2 (colon, adenocarcinoma; human) cells were obtained from ATCC (American Type Culture Collection; Rockville, Md.). For the permeation study, cells were seeded at a density of 63,000 cells/cm^2 on pre-wetted transwells polycarbonate filters (Costar; Cambridge, Mass.). A cell monolayer was formed after 21 days in culture. Following cell culture in the transwell plate, the membrane containing the cell monolayer was detached from the transwell plate and inserted into the diffusion chamber (Costar; Cambridge, Mass.). The diffusion chamber was inserted into the heating block which was equipped with circulating external, thermostatically regulated 37° C. water for temperature control. […]
The permeation study was performed with test compound concentrations at 100 μM and with ^14C-mannitol to monitor the integrity of the monolayer. […] Samples were analyzed by HPLC or liquid scintillation counting for test compound and mannitol concentrations. The permeation coefficient (Kp) in cm/sec was calculated.

In the case of `COC(=O)N1CCC(CN2CCC(CNC(=O)c3cccc4[nH]c(C(C)C)nc34)CC2)CC1` [Form I, 4-(4-{[(2-isopropyl-1H-benzoimidazole-4-carbonyl)amino]methyl}-piperidin-1-ylmethyl)piperidine-1-carboxylic acid methyl ester], in data set [1], the “changes by DSC, TGA or PXRD after milling” value was “no changes detectable”. In addition, the “weight change (moisture sorption)” value in data set [2] (2% to 90% RH, 25° C./room temperature) is listed as “less than 0.25%”; in data set [2] (critical humidity range of 40% to 75% RH) it was “less than 0.1%”. Also, in data set [3], the “change in DSC, TGA, PXRD after storage” value is recorded as “no detectable changes”. Besides, the “onset of degradation (TGA)” value in data set [4] was “above 240 °C”.
`COC(=O)N1CCC(CN2CCC(CNC(=O)c3cccc4[nH]c(C(C)C)nc34)CC2)CC1` [compound of the invention, 4-(4-{[(2-isopropyl-1H-benzoimidazole-4-carbonyl)amino]methyl}-piperidin-1-ylmethyl)piperidine-1-carboxylic acid methyl ester]: in the data set on Caco-2 cell monolayer, the “permeation coefficient Kp” value is recorded as “greater than 50×10^−6 cm/sec”.
